The results in this text go back to article PMC10614625 (Proceedings of the National Academy of Sciences of the …, 2023).

Test [1] addresses T1, ApGLNT1 (Acyrthosiphon pisum, UniProt F8RL01).
T1 sequence (F8RL01 1-500): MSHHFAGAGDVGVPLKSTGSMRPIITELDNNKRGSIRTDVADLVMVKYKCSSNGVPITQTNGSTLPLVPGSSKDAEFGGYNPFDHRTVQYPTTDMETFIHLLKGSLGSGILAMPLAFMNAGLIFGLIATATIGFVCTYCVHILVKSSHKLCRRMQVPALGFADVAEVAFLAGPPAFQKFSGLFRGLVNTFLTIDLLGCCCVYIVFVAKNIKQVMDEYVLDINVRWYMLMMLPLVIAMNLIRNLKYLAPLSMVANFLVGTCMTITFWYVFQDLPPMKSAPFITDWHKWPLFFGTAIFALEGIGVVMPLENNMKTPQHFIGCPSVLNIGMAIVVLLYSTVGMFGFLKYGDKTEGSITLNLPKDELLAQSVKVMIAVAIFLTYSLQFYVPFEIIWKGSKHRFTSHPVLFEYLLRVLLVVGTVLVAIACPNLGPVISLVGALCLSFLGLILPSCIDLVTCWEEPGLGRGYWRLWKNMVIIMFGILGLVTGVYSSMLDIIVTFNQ
The test is described as follows: two-electrode voltage clamp, inward current in Xenopus oocytes. Type of test: cell-based.

For test [2], the target named is T2, PcitGLNT1 (Planococcus citri, UniProt A0A2L0RIC1).
T2 sequence (A0A2L0RIC1 1-502): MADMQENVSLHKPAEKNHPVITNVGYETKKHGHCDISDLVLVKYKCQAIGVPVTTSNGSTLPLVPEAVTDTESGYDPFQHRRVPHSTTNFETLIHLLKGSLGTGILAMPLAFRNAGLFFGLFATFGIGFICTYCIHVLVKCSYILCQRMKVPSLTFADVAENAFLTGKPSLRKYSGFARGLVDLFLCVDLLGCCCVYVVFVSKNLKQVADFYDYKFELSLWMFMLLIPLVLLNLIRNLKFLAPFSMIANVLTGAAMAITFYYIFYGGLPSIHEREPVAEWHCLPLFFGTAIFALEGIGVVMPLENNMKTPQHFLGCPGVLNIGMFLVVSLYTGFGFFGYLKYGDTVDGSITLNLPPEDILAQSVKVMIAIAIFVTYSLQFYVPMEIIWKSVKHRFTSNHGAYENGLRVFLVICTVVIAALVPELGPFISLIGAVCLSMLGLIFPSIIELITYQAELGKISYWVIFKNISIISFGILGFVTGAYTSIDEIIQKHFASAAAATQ
The test is described as above. Type of test: cell-based.

The target in test [3] is T3, PhumGLNT1 (Pediculus humanus, UniProt A0A2L0RIB5).
T3 sequence (A0A2L0RIB5 1-513): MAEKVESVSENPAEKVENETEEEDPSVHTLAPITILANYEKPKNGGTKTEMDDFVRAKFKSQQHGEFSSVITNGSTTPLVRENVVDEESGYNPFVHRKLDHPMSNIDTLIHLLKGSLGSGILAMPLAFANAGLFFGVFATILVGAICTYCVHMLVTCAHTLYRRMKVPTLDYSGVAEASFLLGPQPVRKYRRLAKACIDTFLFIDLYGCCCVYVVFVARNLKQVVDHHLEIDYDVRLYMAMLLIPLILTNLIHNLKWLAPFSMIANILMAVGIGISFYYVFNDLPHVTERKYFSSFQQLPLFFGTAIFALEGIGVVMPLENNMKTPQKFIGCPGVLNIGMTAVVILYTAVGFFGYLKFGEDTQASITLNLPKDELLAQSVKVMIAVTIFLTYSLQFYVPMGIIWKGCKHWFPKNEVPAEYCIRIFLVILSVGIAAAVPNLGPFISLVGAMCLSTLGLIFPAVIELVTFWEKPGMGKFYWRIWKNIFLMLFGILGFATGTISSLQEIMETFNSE
Described as above. Type of test: cell-based.

In test [4] the target is T4, DcitGLNT1 (Diaphorina citri, UniProt A0A2L0RID4).
T4 sequence (A0A2L0RID4 1-508): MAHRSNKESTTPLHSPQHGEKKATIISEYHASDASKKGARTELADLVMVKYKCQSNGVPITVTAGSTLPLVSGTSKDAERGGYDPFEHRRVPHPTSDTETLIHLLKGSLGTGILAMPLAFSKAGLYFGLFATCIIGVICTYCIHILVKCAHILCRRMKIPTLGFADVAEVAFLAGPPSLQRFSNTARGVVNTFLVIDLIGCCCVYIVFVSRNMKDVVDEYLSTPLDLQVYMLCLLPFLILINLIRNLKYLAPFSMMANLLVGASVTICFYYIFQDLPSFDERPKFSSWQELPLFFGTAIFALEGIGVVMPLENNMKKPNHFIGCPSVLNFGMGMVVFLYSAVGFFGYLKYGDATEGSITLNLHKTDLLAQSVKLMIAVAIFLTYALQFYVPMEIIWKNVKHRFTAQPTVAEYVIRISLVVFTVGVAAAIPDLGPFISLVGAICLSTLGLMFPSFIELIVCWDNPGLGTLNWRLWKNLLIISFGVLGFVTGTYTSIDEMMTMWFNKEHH
The description is as above. Type of test: cell-based.

Test [5] has as its target T2, PcitGLNT1. Description: cell-based.
The target of test [6] is T3, PhumGLNT1. The test is described as follows: cell-based.
Test [7] addresses T1, ApGLNT1. The test is described as follows: cell-based.
For test [8], the target named is T4, DcitGLNT1. The test is described as follows: cell-based.

For orientation: EC50 means the midpoint of the concentration-response curve. Regarding `NC(=O)CC[C@H](N)C(=O)O` [glutamine], the EC50 at ApGLNT1 [1] was 5.7 ± 0.8 mM; at PcitGLNT1 [2], 2.1 ± 0.2 mM; at PhumGLNT1 [3] it was 1.5 ± 0.2 mM; at DcitGLNT1 [4], 35.2 ± 18.5 mM.

A word on the IC50: it is the concentration that gives 50% inhibition. A lower IC50 goes with greater potency. In the case of `N=C(N)NCCC[C@H](N)C(=O)O` [arginine], the IC50 at PcitGLNT1 [5] came to 2.5 ± 0.2 mM; on PhumGLNT1 [6], 2.8 ± 2 mM; at ApGLNT1 [7], 5.1 ± 0.9 mM; at DcitGLNT1 [8], 6.1 ± 0.8 mM.
